The text below walks through data of ChEMBL document CHEMBL4229464, “Generation of methylated violapyrones with improved anti-influenza A virus activity by heterologous expression of a type III PKS gene in a marine Streptomyces strain” (Bioorg Med Chem Lett, 2018).

Data set [1] in a line: Cytotoxicity against MDCK cells assessed as reduction in cell viability after 48 hrs by crystal violet staining based method. The following applies: dog. Set-up: species or system Canis lupus familiaris.
For the next data set, the system named is H3N2 subtype. Nature of the data set: Antiviral activity against Influenza A virus (A/Aichi/2/1968(H3N2)) infected in MDCK cells assessed as inhibition of virus-induced cytopathicity after 48 hrs by crystal violet staining based method. The class given is functional, organism-based. Background: Damage to the host cells serves as the signal in cytopathic effect assays.

A further data set concerns Influenza A virus. Nature of the data set: Antiviral activity against Influenza A virus (A/Virginia/ATCC1/2009(H1N1)) infected in MDCK cells assessed as inhibition of virus-induced cytopathicity after 48 hrs by crystal violet staining based method. The class given is functional, organism-based.
The subject of another data set is Staphylococcus aureus. Kind of data set: Antibacterial activity against methicillin-resistant Staphylococcus aureus CCARM 3090 at 10 mg/ml after 20 hrs by agar diffusion method. The class given is functional. The following applies: CCARM 3090, 20 h, read-out: IZ. A general note: Agar diffusion results depend on both activity and mobility in agar.

pIC50: −log10 of the molar value.

For the compound `Cc1c(O)c(CCCCC(C)C)coc1=O`, in data set [1], the CC50 (commonly the concentration that lowers cell viability or growth by half) at 48 h turned out to be 1290 µM. The values for the pIC50 in the data set with H3N2 subtype and in the data set with Influenza A virus were 3.82 and 3.88, respectively. Further, the zone of inhibition at 10000 µg/mL in the data set on Staphylococcus aureus is 11 mm.

For the compound `NC(=O)c1ncn([C@@H]2O[C@H](CO)[C@@H](O)[C@H]2O)n1` [RIBAVIRIN], the CC50 at 48 h in data set [1] turned out to be 1370 µM. Besides, the pIC50 (as a rule, −log10 of the IC50, conventionally taken in molar units) with H3N2 subtype was 4.00; in the data set on Influenza A virus, 4.18.

For `COc1c(CCCCC(C)C)coc(=O)c1C`, the CC50 at 48 h in data set [1] came out at 1880 µM. Moreover, the negative logarithm of the IC50 (pIC50) in the data set on H3N2 subtype and in the data set on Influenza A virus was 4.19 each time. Also, in the data set on Staphylococcus aureus, the zone of inhibition at 10000 µg/mL was 6 mm.

Turning to `COc1c(CCCC(C)C)coc(=O)c1C`, in data set [1], the CC50 at 48 h amounted to 2000 µM. Besides, the pIC50 was 4.02 with H3N2 subtype and 4.23 with Influenza A virus. Also, the zone of inhibition at 10000 µg/mL in the data set with Staphylococcus aureus amounted to 0 mm.

Turning to `CCCCCCCc1coc(=O)c(C)c1OC`, the CC50 at 48 h in data set [1] turned out to be 2230 µM. Also, the pIC50 in the data set with H3N2 subtype was 4.34; in the data set on Influenza A virus, 4.51. Moreover, the zone of inhibition at 10000 µg/mL in the data set on Staphylococcus aureus stood at 0 mm.

Regarding `CCC(C)CCCCc1coc(=O)c(C)c1OC` (stereo not given), the CC50 at 48 h in data set [1] is 1550 µM. Further, the pIC50 is 4.14 with H3N2 subtype and 4.16 with Influenza A virus. For the same compound, the zone of inhibition at 10000 µg/mL with Staphylococcus aureus turned out to be 0 mm.

For `CCCCCCCc1coc(=O)c(C)c1O`, the CC50 at 48 h in data set [1] was determined as 2200 µM. Also, the pIC50 in the data set with H3N2 subtype and in the data set on Influenza A virus was 4.13 in each case. For the same compound, the zone of inhibition at 10000 µg/mL in the data set with Staphylococcus aureus is 11 mm.

As for `Cc1c(O)c(CCCC(C)C)coc1=O`, in data set [1], the CC50 at 48 h is 1240 µM. Also, the pIC50 in the data set with H3N2 subtype was 3.98; in the data set with Influenza A virus it was 4.22. Moreover, the zone of inhibition at 10000 µg/mL with Staphylococcus aureus is 0 mm.

With `CCC(C)CCCCc1coc(=O)c(C)c1O` (stereo not given), the CC50 at 48 h in data set [1] is 1620 µM. Besides, the values for the pIC50 in the data set on H3N2 subtype and with Influenza A virus were 4.08 and 4.10, respectively. In addition, the zone of inhibition at 10000 µg/mL in the data set with Staphylococcus aureus worked out at 18 mm.
